# Compound: NC(=O)CCCCC1CCSS1 [lipoamide]
# Experiment: thermal stability z-score vs DMSO; higher = more thermally stabilized by treatment
# Conditions: HeLa; lipoamide concentration 100 µM; arsenate co-treatment: 1 mM arsenate 1 h
# Description: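 Cellular thermal proteome profiling in HeLa cells. Cells were treated with 100 µM lipoamide for 1 h, with or without 1 mM arsenate for a further 1 h, then heated to ten temperatures (37-66.3 °C), and soluble protein was quantified by TMT mass spectrometry relative to 0.1% DMSO controls. The thermal stability score (sum of log2 fold changes minus the abundance score) was transformed to a z-score; mean of n = 3 experiments.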
# 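Further: each temperature applied for 3 min, abundance score taken as mean log2 fold change at the two lowest temperatures, z-score obtained by mean subtraction and division by SD.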
# Sequence of UniProt Q9NUQ3 (Q9NUQ3 whole entry): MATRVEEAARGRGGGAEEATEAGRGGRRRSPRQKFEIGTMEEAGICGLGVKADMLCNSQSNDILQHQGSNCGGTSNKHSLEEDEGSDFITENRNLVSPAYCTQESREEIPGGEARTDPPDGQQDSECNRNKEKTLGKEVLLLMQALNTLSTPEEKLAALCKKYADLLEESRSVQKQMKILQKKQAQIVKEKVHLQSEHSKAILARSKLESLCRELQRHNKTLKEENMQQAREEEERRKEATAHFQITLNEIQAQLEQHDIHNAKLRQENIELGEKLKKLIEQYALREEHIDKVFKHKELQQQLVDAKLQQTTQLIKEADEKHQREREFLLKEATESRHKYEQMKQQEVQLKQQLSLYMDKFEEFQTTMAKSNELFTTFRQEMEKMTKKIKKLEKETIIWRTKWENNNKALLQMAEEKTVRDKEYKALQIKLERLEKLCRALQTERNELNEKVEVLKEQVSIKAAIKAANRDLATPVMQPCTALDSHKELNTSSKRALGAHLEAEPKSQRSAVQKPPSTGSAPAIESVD
# Sequence of UniProt P55795 (P55795 whole entry): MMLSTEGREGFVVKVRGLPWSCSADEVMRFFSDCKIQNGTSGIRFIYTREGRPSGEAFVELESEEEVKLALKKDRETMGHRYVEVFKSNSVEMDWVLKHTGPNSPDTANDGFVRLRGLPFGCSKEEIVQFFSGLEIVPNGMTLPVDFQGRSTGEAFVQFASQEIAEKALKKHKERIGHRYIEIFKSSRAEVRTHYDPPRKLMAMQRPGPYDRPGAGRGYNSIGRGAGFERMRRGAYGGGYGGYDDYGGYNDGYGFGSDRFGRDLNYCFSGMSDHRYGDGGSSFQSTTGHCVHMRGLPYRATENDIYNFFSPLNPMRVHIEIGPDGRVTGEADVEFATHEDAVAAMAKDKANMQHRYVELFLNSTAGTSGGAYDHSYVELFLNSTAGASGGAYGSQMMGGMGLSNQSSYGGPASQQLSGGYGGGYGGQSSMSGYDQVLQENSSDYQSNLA
# Sequence of UniProt Q13356 (Q13356 whole entry): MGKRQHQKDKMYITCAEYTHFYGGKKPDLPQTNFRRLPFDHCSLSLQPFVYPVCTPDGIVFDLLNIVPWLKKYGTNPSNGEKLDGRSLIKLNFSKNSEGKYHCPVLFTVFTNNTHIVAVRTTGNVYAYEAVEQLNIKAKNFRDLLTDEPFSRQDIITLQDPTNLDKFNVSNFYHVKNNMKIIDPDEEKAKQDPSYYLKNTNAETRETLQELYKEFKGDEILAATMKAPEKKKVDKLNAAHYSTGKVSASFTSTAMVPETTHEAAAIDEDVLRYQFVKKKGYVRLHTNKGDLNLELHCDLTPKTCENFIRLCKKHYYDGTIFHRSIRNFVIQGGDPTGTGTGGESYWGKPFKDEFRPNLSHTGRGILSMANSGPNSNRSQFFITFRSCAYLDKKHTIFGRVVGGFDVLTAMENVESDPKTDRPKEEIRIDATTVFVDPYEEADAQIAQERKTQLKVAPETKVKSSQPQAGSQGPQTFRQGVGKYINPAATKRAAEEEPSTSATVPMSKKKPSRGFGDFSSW
# Sequence of UniProt O75251 (O75251 whole entry): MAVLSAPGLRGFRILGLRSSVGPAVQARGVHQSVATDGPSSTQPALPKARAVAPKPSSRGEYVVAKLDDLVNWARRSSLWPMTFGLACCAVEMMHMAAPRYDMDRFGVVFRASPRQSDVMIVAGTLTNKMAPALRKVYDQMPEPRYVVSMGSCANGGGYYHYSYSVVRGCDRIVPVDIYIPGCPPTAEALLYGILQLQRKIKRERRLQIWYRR
# Sequence of UniProt Q8WUB8 (Q8WUB8 whole entry): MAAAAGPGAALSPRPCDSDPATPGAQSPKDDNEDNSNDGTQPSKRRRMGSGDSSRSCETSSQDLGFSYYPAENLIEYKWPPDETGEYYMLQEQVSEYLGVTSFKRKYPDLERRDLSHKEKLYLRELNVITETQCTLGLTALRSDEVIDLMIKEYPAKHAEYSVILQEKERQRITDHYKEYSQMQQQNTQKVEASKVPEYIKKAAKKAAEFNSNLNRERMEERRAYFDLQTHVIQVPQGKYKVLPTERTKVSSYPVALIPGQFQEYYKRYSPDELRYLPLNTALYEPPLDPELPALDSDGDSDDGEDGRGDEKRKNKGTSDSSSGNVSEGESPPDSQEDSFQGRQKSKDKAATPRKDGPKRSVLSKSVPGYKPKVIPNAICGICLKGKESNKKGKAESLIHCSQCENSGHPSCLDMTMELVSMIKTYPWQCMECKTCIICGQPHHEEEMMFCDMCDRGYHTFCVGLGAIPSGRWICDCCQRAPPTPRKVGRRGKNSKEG
# Sequence of UniProt Q16891 (Q16891 whole entry): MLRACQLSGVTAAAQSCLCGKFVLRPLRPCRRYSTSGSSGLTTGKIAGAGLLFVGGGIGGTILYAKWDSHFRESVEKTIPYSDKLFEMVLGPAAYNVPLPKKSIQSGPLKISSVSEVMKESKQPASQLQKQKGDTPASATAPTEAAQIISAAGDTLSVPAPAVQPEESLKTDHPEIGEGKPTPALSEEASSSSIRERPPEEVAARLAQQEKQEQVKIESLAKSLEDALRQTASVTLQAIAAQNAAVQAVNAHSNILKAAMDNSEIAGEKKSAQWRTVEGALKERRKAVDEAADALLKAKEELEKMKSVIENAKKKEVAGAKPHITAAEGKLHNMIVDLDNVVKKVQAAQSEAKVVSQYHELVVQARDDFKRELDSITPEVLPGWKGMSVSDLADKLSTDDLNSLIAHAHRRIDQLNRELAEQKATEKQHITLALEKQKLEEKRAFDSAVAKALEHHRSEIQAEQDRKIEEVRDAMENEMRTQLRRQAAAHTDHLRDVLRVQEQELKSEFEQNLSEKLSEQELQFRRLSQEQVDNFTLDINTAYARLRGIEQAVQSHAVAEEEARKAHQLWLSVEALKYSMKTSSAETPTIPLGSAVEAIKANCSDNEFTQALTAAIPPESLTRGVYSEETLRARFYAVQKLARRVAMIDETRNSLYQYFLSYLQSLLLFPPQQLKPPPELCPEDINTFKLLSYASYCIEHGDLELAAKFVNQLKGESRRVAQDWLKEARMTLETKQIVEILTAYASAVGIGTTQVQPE
# Sequence of UniProt P49441 (P49441 whole entry): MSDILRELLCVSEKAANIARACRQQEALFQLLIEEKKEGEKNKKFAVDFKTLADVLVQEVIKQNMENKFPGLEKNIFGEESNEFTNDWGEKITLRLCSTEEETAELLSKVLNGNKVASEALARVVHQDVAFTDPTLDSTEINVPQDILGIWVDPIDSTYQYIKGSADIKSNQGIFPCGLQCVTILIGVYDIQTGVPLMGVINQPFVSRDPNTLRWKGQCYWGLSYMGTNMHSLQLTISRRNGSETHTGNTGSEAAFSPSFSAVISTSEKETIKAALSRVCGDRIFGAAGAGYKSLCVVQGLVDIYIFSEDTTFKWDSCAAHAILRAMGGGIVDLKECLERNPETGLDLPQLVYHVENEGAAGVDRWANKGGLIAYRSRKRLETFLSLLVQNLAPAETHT
# Sequence of UniProt Q96A33 (Q96A33 whole entry): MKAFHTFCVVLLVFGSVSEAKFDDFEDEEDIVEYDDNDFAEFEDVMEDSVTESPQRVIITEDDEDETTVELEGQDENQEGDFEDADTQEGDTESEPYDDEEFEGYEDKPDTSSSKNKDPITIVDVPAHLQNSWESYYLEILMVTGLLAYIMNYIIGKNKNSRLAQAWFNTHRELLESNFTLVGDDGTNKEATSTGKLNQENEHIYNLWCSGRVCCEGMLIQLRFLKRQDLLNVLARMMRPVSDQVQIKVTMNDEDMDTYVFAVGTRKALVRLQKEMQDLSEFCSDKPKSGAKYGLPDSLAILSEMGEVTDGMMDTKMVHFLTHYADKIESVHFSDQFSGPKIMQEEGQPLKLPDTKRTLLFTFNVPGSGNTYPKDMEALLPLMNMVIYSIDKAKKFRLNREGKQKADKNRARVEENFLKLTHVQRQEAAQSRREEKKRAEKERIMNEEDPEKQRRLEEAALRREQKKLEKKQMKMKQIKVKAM
# Sequence of UniProt Q15382 (Q15382 whole entry): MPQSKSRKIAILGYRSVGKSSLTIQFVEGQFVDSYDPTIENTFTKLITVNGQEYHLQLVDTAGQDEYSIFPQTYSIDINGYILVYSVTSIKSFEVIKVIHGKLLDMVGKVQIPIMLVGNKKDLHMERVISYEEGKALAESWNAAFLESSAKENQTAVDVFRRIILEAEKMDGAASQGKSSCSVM
# Sequence of UniProt Q9Y2D4 (Q9Y2D4 whole entry): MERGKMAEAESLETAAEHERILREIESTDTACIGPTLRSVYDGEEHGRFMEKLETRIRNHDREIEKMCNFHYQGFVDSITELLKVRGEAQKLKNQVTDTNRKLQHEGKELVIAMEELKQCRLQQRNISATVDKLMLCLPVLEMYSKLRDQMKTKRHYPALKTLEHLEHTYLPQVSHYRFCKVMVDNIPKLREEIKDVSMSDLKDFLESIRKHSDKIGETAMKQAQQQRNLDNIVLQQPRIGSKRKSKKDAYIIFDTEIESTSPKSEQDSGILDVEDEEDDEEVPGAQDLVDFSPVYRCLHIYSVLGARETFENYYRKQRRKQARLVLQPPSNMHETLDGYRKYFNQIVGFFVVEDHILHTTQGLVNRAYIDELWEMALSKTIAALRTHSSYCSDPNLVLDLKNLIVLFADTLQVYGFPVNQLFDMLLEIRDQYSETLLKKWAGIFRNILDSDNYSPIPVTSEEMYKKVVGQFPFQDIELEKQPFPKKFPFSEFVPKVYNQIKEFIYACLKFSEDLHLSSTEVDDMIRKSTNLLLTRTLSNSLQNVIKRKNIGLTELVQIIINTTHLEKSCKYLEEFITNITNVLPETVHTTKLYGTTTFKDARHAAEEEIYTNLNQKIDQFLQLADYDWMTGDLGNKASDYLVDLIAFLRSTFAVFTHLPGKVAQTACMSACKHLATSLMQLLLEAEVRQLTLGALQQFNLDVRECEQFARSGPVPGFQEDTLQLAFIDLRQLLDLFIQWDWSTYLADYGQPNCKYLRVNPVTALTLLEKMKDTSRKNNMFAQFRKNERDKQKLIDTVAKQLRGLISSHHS
row,Target,thermal stability z-score
1,MYO1B (UniProt O43795),0.967
2,NUDT1 (UniProt P36639),0.505
3,HDHD3 (UniProt Q9BSH5),-0.136
4,TRIM5 (UniProt Q9C035),0.224
5,CDC42BPB (UniProt Q9Y5S2),-0.57
6,SGPL1 (UniProt O95470),0.442
7,GIGYF1 (UniProt O75420),0.0328
8,PCMT1 (UniProt P22061),0.993
9,MTMR6 (UniProt Q9Y217),0.0538
10,EIF3C (UniProt Q99613),-0.304
11,DHX57 (UniProt Q6P158),-0.125
12,RHEB (UniProt Q15382),-0.13
13,FKBP10 (UniProt Q96AY3),-3.58
14,MSH2 (UniProt P43246),-0.271
15,NAA35 (UniProt Q5VZE5),0.334
16,CIZ1 (UniProt Q9ULV3),0.0439
17,SEC14L1 (UniProt Q92503),-0.149
18,ACO1 (UniProt P21399),0.259
19,ANO6 (UniProt Q4KMQ2),-0.102
20,TMPIT|TMEM120A,0.15
21,APAF1 (UniProt O14727),-0.167
22,DNAJC10 (UniProt Q8IXB1),-3.47
23,PTRH1 (UniProt Q86Y79),0.0851
24,IMMT (UniProt Q16891),0.667
25,NDUFS7 (UniProt O75251),0.142
26,TUBB3 (UniProt Q13509),0.871
27,SCAMP1 (UniProt O15126),0.621
28,PYCR2 (UniProt Q96C36),0.43

row,Target,thermal stability z-score
1,USP47 (UniProt Q96K76),-0.439
2,TYW1 (UniProt Q9NV66),-0.0973
3,NIT1 (UniProt Q86X76),0.836
4,PPIL2 (UniProt Q13356),0.057
5,SDF2 (UniProt Q99470),-3.1
6,MED16 (UniProt Q9Y2X0),-0.0673
7,NEMP1 (UniProt O14524),-0.805
8,TXLNG (UniProt Q9NUQ3),0.386
9,ERMP1 (UniProt Q7Z2K6),0.0556
10,PDE2A (UniProt O00408),-0.284
11,CCDC47 (UniProt Q96A33),-0.4
12,RAP1B (UniProt P61224),0.74
13,STAG1 (UniProt Q8WVM7),0.115
14,GFPT1 (UniProt Q06210),-0.127
15,PHF10 (UniProt Q8WUB8),-0.191
16,HDDC2 (UniProt Q7Z4H3),-0.204
17,UBR5 (UniProt O95071),-0.165
18,NCAPG (UniProt Q9BPX3),-0.382
19,RAB3IL1 (UniProt Q8TBN0),-0.235
20,PPP1R2 (UniProt P41236),0.658
21,CD55 (UniProt P08174),0.266
22,INPP1 (UniProt P49441),-1.52
23,DDX19A (UniProt Q9NUU7),0.865
24,HNRNPR (UniProt O43390),0.306
25,EXOC6B (UniProt Q9Y2D4),0.36
26,COMTD1 (UniProt Q86VU5),-0.328
27,HNRNPH2 (UniProt P55795),-0.319

# Same assay, conditions: HeLa; lipoamide concentration 100 µM; arsenate co-treatment: none
row,Target,thermal stability z-score
1,MYO1B (UniProt O43795),0.54
2,NUDT1 (UniProt P36639),0.0984
3,HDHD3 (UniProt Q9BSH5),-0.867
4,TRIM5 (UniProt Q9C035),0.183
5,CDC42BPB (UniProt Q9Y5S2),-0.124
6,SGPL1 (UniProt O95470),0.255
7,GIGYF1 (UniProt O75420),0.0305
8,PCMT1 (UniProt P22061),0.908
9,MTMR6 (UniProt Q9Y217),0.0997
10,EIF3C (UniProt Q99613),0.183
11,DHX57 (UniProt Q6P158),-0.0979
12,RHEB (UniProt Q15382),0.625
13,FKBP10 (UniProt Q96AY3),-2.95
14,MSH2 (UniProt P43246),-0.178
15,NAA35 (UniProt Q5VZE5),0.635
16,CIZ1 (UniProt Q9ULV3),-0.505
17,SEC14L1 (UniProt Q92503),-0.0215
18,ACO1 (UniProt P21399),-0.252
19,ANO6 (UniProt Q4KMQ2),-0.0242
20,TMPIT|TMEM120A,0.398
21,APAF1 (UniProt O14727),-0.0627
22,DNAJC10 (UniProt Q8IXB1),-2.86
23,PTRH1 (UniProt Q86Y79),0.0188
24,IMMT (UniProt Q16891),0.854
25,NDUFS7 (UniProt O75251),0.157
26,TUBB3 (UniProt Q13509),0.131
27,SCAMP1 (UniProt O15126),0.765
28,PYCR2 (UniProt Q96C36),-0.4

row,Target,thermal stability z-score
1,USP47 (UniProt Q96K76),-0.436
2,TYW1 (UniProt Q9NV66),0.228
3,NIT1 (UniProt Q86X76),0.924
4,PPIL2 (UniProt Q13356),-0.0266
5,SDF2 (UniProt Q99470),-2.94
6,MED16 (UniProt Q9Y2X0),0.0989
7,NEMP1 (UniProt O14524),-0.823
8,TXLNG (UniProt Q9NUQ3),0.0198
9,ERMP1 (UniProt Q7Z2K6),-0.119
10,PDE2A (UniProt O00408),0.382
11,CCDC47 (UniProt Q96A33),-0.332
12,RAP1B (UniProt P61224),0.45
13,STAG1 (UniProt Q8WVM7),-0.148
14,GFPT1 (UniProt Q06210),-0.196
15,PHF10 (UniProt Q8WUB8),-0.061
16,HDDC2 (UniProt Q7Z4H3),-0.127
17,UBR5 (UniProt O95071),-0.0498
18,NCAPG (UniProt Q9BPX3),0.295
19,RAB3IL1 (UniProt Q8TBN0),0.559
20,PPP1R2 (UniProt P41236),0.619
21,CD55 (UniProt P08174),0.169
22,INPP1 (UniProt P49441),-1.35
23,DDX19A (UniProt Q9NUU7),1.2
24,HNRNPR (UniProt O43390),-0.456
25,EXOC6B (UniProt Q9Y2D4),1.01
26,COMTD1 (UniProt Q86VU5),-1.94
27,HNRNPH2 (UniProt P55795),-0.0126

# Compound: O=[As]([O-])(O)O.[K+] [potassium arsenate]
# Experiment: as above
# Conditions: HeLa; arsenate concentration 1 mM
# Description: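 Cellular thermal proteome profiling in HeLa cells treated with 1 mM arsenate for 1 h (DMSO pretreatment), heated to ten temperatures (37-66.3 °C). Soluble protein was quantified by TMT mass spectrometry relative to DMSO controls; the thermal stability score was transformed to a z-score; mean of n = 3 experiments.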
row,Target,thermal stability z-score
1,MYO1B (UniProt O43795),-2.1
2,NUDT1 (UniProt P36639),-0.00492
3,HDHD3 (UniProt Q9BSH5),-2.27
4,TRIM5 (UniProt Q9C035),0.259
5,CDC42BPB (UniProt Q9Y5S2),-0.221
6,SGPL1 (UniProt O95470),-0.584
7,GIGYF1 (UniProt O75420),0.0812
8,PCMT1 (UniProt P22061),0.245
9,MTMR6 (UniProt Q9Y217),-0.39
10,EIF3C (UniProt Q99613),0.498
11,DHX57 (UniProt Q6P158),-0.286
12,RHEB (UniProt Q15382),1.46
13,FKBP10 (UniProt Q96AY3),0.321
14,MSH2 (UniProt P43246),-0.565
15,NAA35 (UniProt Q5VZE5),0.265
16,CIZ1 (UniProt Q9ULV3),-0.0848
17,SEC14L1 (UniProt Q92503),-0.169
18,ACO1 (UniProt P21399),-0.945
19,ANO6 (UniProt Q4KMQ2),-0.286
20,TMPIT|TMEM120A,-0.269
21,APAF1 (UniProt O14727),-0.00853
22,DNAJC10 (UniProt Q8IXB1),-0.253
23,PTRH1 (UniProt Q86Y79),-0.214
24,IMMT (UniProt Q16891),1.31
25,NDUFS7 (UniProt O75251),0.149
26,TUBB3 (UniProt Q13509),-0.447
27,SCAMP1 (UniProt O15126),0.0619
28,PYCR2 (UniProt Q96C36),-0.765

row,Target,thermal stability z-score
1,USP47 (UniProt Q96K76),0.244
2,TYW1 (UniProt Q9NV66),1.04
3,NIT1 (UniProt Q86X76),0.439
4,PPIL2 (UniProt Q13356),-0.223
5,SDF2 (UniProt Q99470),0.21
6,MED16 (UniProt Q9Y2X0),-0.0825
7,NEMP1 (UniProt O14524),0.154
8,TXLNG (UniProt Q9NUQ3),1.86
9,ERMP1 (UniProt Q7Z2K6),0.227
10,PDE2A (UniProt O00408),-0.355
11,CCDC47 (UniProt Q96A33),-1.21
12,RAP1B (UniProt P61224),0.17
13,STAG1 (UniProt Q8WVM7),-0.00763
14,GFPT1 (UniProt Q06210),-0.331
15,PHF10 (UniProt Q8WUB8),-0.359
16,HDDC2 (UniProt Q7Z4H3),-0.419
17,UBR5 (UniProt O95071),1.13
18,NCAPG (UniProt Q9BPX3),0.883
19,RAB3IL1 (UniProt Q8TBN0),-0.89
20,PPP1R2 (UniProt P41236),0.183
21,CD55 (UniProt P08174),0.446
22,INPP1 (UniProt P49441),-1.9
23,DDX19A (UniProt Q9NUU7),0.954
24,HNRNPR (UniProt O43390),-1.96
25,EXOC6B (UniProt Q9Y2D4),0.332
26,COMTD1 (UniProt Q86VU5),-0.237
27,HNRNPH2 (UniProt P55795),-0.224
